Read-outs that look alike come from different tables or passages of the source.
What was measured:
[1] = system: Gaeumannomyces graminis; assay: Gaeumannomyces graminis / liquid culture (take-all of cereals); assay type: cell-based; settings: compared to untreated control, 4-5 days after application
[2] = system: Sclerotinia sclerotiorum; assay: Sclerotinia sclerotiorum / liquid culture (cottony rot); settings: read-out: control of Sclerotinia sclerotiorum
Description: Sclerotinia sclerotiorum/Liquid Culture (Cottony Rot)
Mycelia fragments of a newly grown liquid culture of the fungus are directly mixed into nutrient broth (Vogels broth). After placing a (DMSO) solution of test compound into a microtiter plate (96-well format) the nutrient broth containing the fungal material is added. The test plates are incubated at 24° C. and the inhibition of growth is determined photometrically 3-4 days after application.

[3] = system: Monographella nivalis (Microdochium nivale); assay: Monographella nivalis (Microdochium nivale) / liquid culture (foot rot cereals); assay type: cell-based; settings: read-out: disease control
[4] = system: Botryotinia fuckeliana (Botrytis cinerea); assay: Botryotinia fuckeliana (Botrytis cinerea) / liquid culture (gray mould); assay type: cell-based; settings: 72 h, read-out: disease control
[5] = system: Fusarium culmorum; assay: microbe, parasite or virus in culture; assay type: cell-based; settings: read-out: disease control
[6] = system: Glomerella lagenarium (Colletotrichum lagenarium); assay: Glomerella lagenarium (Colletotrichum lagenarium) / liquid culture (anthracnose); assay type: cell-based; settings: Colletotrichum orbiculare, read-out: disease control
[7] = system: Magnaporthe grisea (Pyricularia oryzae); assay: microbe, parasite or virus in culture; assay type: cell-based; settings: read-out: control of Magnaporthe grisea
[8] = system: Fusarium culmorum; assay: whole plant or invertebrate; assay type: in vivo, Fusarium culmorum on wheat spikelets cv. Monsun; settings: in Triticum aestivum, 144 h, read-out: control of Fusarium culmorum
[9] = 200 ppm, compared to untreated control, growth inhibition photometrically 4-5 days after application
[10] = 200 ppm, compared to untreated control, growth inhibition photometrically 3-4 days after application

Cc1c(C(=O)NC(C)(C)C#Cc2ccccc2)cnc2c(F)cccc12 [Compound F-51, N-(1,1-dimethyl-3-phenyl-prop-2-ynyl)-8-fluoro-4-methyl-quinoline-3-carboxamide]
≥ 80%: inhibition of growth at 20 ppm [1] | inhibition of growth at 20 ppm [2] | inhibition of growth at 200 ppm [3, 9] | inhibition of growth at 200 ppm [4, 10] | inhibition of growth at 200 ppm [5] | inhibition of growth at 200 ppm [6, 10] | inhibition of growth at 20 ppm [7]

CC(C)(C#Cc1ccc(F)cc1F)NC(=O)c1cnc2c(F)cccc2c1 [Compound F-25, N-[3-(2,4-difluorophenyl)-1,1-dimethyl-prop-2-ynyl]-8-fluoro-quinoline-3-carboxamide]
≥ 80%: pest or weed control at 200 ppm [8] | inhibition of growth at 20 ppm [1] | inhibition of growth at 200 ppm [3, 9] | inhibition of growth at 200 ppm [4, 10] | inhibition of growth at 200 ppm [5] | inhibition of growth at 200 ppm [6, 10]

CCC(C#Cc1ccccc1)(CC)NC(=O)c1cnc2c(F)cccc2c1 [Compound F-6, N-(1,1-diethyl-3-phenyl-prop-2-ynyl)-8-fluoro-quinoline-3-carboxamide]
≥ 80%: inhibition of growth at 20 ppm [1] | inhibition of growth at 200 ppm [3, 9] | inhibition of growth at 200 ppm [4, 10] | inhibition of growth at 200 ppm [5] | inhibition of growth at 200 ppm [6, 10]

CCC(C)(C#Cc1ccccc1C)NC(=O)c1cnc2c(F)cccc2c1 (stereo not shown) [Compound F-15, N-[1-ethyl-1-methyl-3-(o-tolyl)prop-2-ynyl]-8-fluoro-quinoline-3-carboxamide]
143 to 146 °C: melting point
≥ 80%: inhibition of growth at 20 ppm [2] | inhibition of growth at 200 ppm [3, 9] | inhibition of growth at 200 ppm [4, 10] | inhibition of growth at 200 ppm [5] | inhibition of growth at 200 ppm [6, 10] | inhibition of growth at 20 ppm [7]

CC(C)C(C)(C#Cc1ccccc1F)NC(=O)c1cnc2c(F)cccc2c1 (stereo not shown) [Compound F-12, 8-fluoro-N-[3-(2-fluorophenyl)-1-isopropyl-1-methyl-prop-2-ynyl]quinoline-3-carboxamide]
≥ 80%: pest or weed control at 200 ppm [8] | inhibition of growth at 20 ppm [1] | inhibition of growth at 20 ppm [2] | inhibition of growth at 200 ppm [3, 9] | inhibition of growth at 200 ppm [4, 10] | inhibition of growth at 200 ppm [5] | inhibition of growth at 200 ppm [6, 10] | inhibition of growth at 20 ppm [7]

O=C(NC(C#Cc1ccccc1)CCC(F)(F)F)c1cnc2c(F)cccc2c1 (stereo not shown) [Compound F-4, 8-fluoro-N-[4,4,4-trifluoro-1-(2-phenylethynyl)butyl]quinoline-3-carboxamide]
≥ 80%: inhibition of growth at 20 ppm [1] | inhibition of growth at 200 ppm [3, 9] | inhibition of growth at 200 ppm [4, 10] | inhibition of growth at 200 ppm [5] | inhibition of growth at 20 ppm [7]

CC(C)C(C#Cc1ccccc1)NC(=O)c1cnc2c(F)cccc2c1 (stereo not shown) [Compound F-3, 8-fluoro-N-(1-isopropyl-3-phenyl-prop-2-ynyl)quinoline-3-carboxamide]
156 to 158 °C: melting point
≥ 80%: pest or weed control at 200 ppm [8] | inhibition of growth at 200 ppm [3, 9] | inhibition of growth at 200 ppm [4, 10] | inhibition of growth at 200 ppm [5] | inhibition of growth at 200 ppm [6, 10] | inhibition of growth at 20 ppm [7]

CC(CC#CC1CC1)(CC(F)(F)F)NC(=O)c1cnc2c(F)cccc2c1 (stereo not shown) [Compound E-1, N-[4-cyclopropyl-1-methyl-1-(2,2,2-trifluoroethyl)but-3-ynyl]-8-fluoro-quinoline-3-carboxamide]
110 to 112 °C: melting point
≥ 80%: inhibition of growth at 200 ppm [3] | inhibition of growth at 200 ppm [4] | inhibition of growth at 200 ppm [5] | inhibition of growth at 200 ppm [6]

CC(C)[C@@](C)(C#Cc1ccccc1)NC(=O)c1cnc2c(F)cccc2c1 (single isomer, unassigned) [Compound G-7]
≥ 80%: pest or weed control at 200 ppm [8] | inhibition of growth at 20 ppm [2] | inhibition of growth at 200 ppm [3, 9] | inhibition of growth at 200 ppm [4, 10] | inhibition of growth at 200 ppm [5] | inhibition of growth at 200 ppm [6, 10] | inhibition of growth at 20 ppm [7]

CC(C)(C#Cc1cccc(C(F)(F)F)c1)NC(=O)c1cnc2c(F)cccc2c1 [Compound F-48, N-[1,1-dimethyl-3-[3-(trifluoromethyl)phenyl]prop-2-ynyl]-8-fluoro-quinoline-3-carboxamide]
≥ 80%: inhibition of growth at 20 ppm [1] | inhibition of growth at 200 ppm [3, 9] | inhibition of growth at 200 ppm [4, 10] | inhibition of growth at 200 ppm [5] | inhibition of growth at 200 ppm [6, 10] | inhibition of growth at 20 ppm [7]
181 to 184 °C: melting point

COc1ccc(Cl)cc1C#CC(C)(C)NC(=O)c1cnc2c(F)cccc2c1 [Compound F-23, N-[3-(5-chloro-2-methoxy-phenyl)-1,1-dimethyl-prop-2-ynyl]-8-fluoro-quinoline-3-carboxamide]
≥ 80%: inhibition of growth at 20 ppm [1] | inhibition of growth at 200 ppm [3, 9] | inhibition of growth at 200 ppm [4, 10] | inhibition of growth at 200 ppm [5] | inhibition of growth at 200 ppm [6, 10]

Cc1ccccc1C#CC(C)(C)NC(=O)c1cnc2c(F)cccc2c1 [Compound F-47, N-[1,1-dimethyl-3-(o-tolyl)prop-2-ynyl]-8-fluoro-quinoline-3-carboxamide]
≥ 80%: pest or weed control at 200 ppm [8] | inhibition of growth at 20 ppm [1] | inhibition of growth at 200 ppm [3, 9] | inhibition of growth at 200 ppm [4, 10] | inhibition of growth at 200 ppm [5] | inhibition of growth at 200 ppm [6, 10] | inhibition of growth at 20 ppm [7]
156 to 160 °C: melting point

CC(C)C(C)(C#Cc1ccccc1)NC(=O)c1cnc2c(F)cccc2c1 (stereo not shown) [Compound F-46, 8-fluoro-N-(1-isopropyl-1-methyl-3-phenyl-prop-2-ynyl)quinoline-3-carboxamide]
≥ 80%: pest or weed control at 200 ppm [8] | inhibition of growth at 20 ppm [1] | inhibition of growth at 200 ppm [3, 9] | inhibition of growth at 200 ppm [4, 10] | inhibition of growth at 200 ppm [5] | inhibition of growth at 200 ppm [6, 10] | inhibition of growth at 20 ppm [7]
118 to 122 °C: melting point

CC(C)(C#Cc1ccccc1)NC(=O)c1cnc2ccccc2c1 [Compound F-49, N-(1,1-dimethyl-3-phenyl-prop-2-ynyl)quinoline-3-carboxamide]
≥ 80%: pest or weed control at 200 ppm [8] | inhibition of growth at 20 ppm [1] | inhibition of growth at 200 ppm [3, 9] | inhibition of growth at 200 ppm [4, 10] | inhibition of growth at 200 ppm [5] | inhibition of growth at 200 ppm [6, 10] | inhibition of growth at 20 ppm [7]
136 to 141 °C: melting point

Cc1ccc(F)cc1C#CC(C)(C)NC(=O)c1cnc2c(F)cccc2c1 [Compound F-24, 8-fluoro-N-[3-(5-fluoro-2-methyl-phenyl)-1,1-dimethyl-prop-2-ynyl]quinoline-3-carboxamide]
≥ 80%: pest or weed control at 200 ppm [8] | inhibition of growth at 20 ppm [1] | inhibition of growth at 200 ppm [3, 9] | inhibition of growth at 200 ppm [4, 10] | inhibition of growth at 200 ppm [5] | inhibition of growth at 200 ppm [6, 10]

Cc1nc2c(F)cccc2cc1C(=O)NC(C)(C)C#Cc1ccccc1 [Compound F-50, N-(1,1-dimethyl-3-phenyl-prop-2-ynyl)-8-fluoro-2-methyl-quinoline-3-carboxamide]
118 to 123 °C: melting point
≥ 80%: inhibition of growth at 20 ppm [2] | inhibition of growth at 200 ppm [4, 10] | inhibition of growth at 200 ppm [5] | inhibition of growth at 200 ppm [6, 10] | inhibition of growth at 20 ppm [7]

CC(C)[C@](C)(C#Cc1ccccc1)NC(=O)c1cnc2c(F)cccc2c1 (single isomer, unassigned) [Compound G-8]
≥ 80%: inhibition of growth at 20 ppm [1] | inhibition of growth at 200 ppm [3, 9] | inhibition of growth at 200 ppm [4, 10] | inhibition of growth at 200 ppm [5] | inhibition of growth at 200 ppm [6, 10] | inhibition of growth at 20 ppm [7]

Cc1ccccc1C#CC(C)(NC(=O)c1cnc2c(F)cccc2c1)C(C)C (stereo not shown) [Compound F-13, 8-fluoro-N-[1-isopropyl-1-methyl-3-(o-tolyl)prop-2-ynyl]quinoline-3-carboxamide]
≥ 80%: inhibition of growth at 20 ppm [1] | inhibition of growth at 200 ppm [3, 9] | inhibition of growth at 200 ppm [4, 10] | inhibition of growth at 200 ppm [5] | inhibition of growth at 200 ppm [6, 10] | inhibition of growth at 20 ppm [7]
138 to 141 °C: melting point

C#CC(C)(C)NC(=O)c1cnc2c(F)cccc2c1 [Compound F-54, N-(1,1-dimethylprop-2-ynyl)-8-fluoro-quinoline-3-carboxamide]
≥ 80%: inhibition of growth at 200 ppm [3, 9] | inhibition of growth at 200 ppm [5]
148 to 150 °C: melting point

CC(C)C[C@](C)(C#Cc1ccccc1)NC(=O)c1cnc2c(F)cccc2c1 [Compound G-6, N-[(1R)-1,3-dimethyl-1-(2-phenylethynyl)butyl]-8-fluoro-quinoline-3-carboxamide]
≥ 80%: inhibition of growth at 20 ppm [1] | inhibition of growth at 200 ppm [3, 9] | inhibition of growth at 200 ppm [4, 10] | inhibition of growth at 200 ppm [5] | inhibition of growth at 20 ppm [7]
128 to 130 °C: melting point

CC(C)C[C@H](C#Cc1ccccc1)NC(=O)c1cnc2c(F)cccc2c1 [Compound G-3, 8-fluoro-N-[(1R)-3-methyl-1-(2-phenylethynyl)butyl]quinoline-3-carboxamide]
≥ 80%: inhibition of growth at 20 ppm [1] | inhibition of growth at 200 ppm [3, 9] | inhibition of growth at 200 ppm [4, 10] | inhibition of growth at 200 ppm [5] | inhibition of growth at 200 ppm [6, 10] | inhibition of growth at 20 ppm [7]

Reference: patent publication US11178869B2, “Microbiocidal quinoline (thio)carboxamide derivatives” (priority 2017, dated 2021)
